Literature values as cited in patent publication US20070166344A1, “Non-leaching surface-active film compositions for microbial adhesion prevention” (priority 2006, published 2007).

Conditions: organism not given

For Benzalkonium chloride, the MIC level is listed as “about 7.5 ppm”.
